# Data published in patent US6197826A, “α-(2-hydroxyphenyl) nitrone compounds, pharmaceutical compositions containing the same and methods for treating inflammation” (Centaur Pharmaceuticals, Inc., priority 1999, dated 2001).
# Assays:
# [1] = tested on: cyclooxygenase 2 (COX-2); details: 300 μM; COX-2 from sheep placenta
# Description: (§1) In this experiment, nitrones of formula I were tested to determine if they inhibit the enzymes cyclooxygenase 1 (COX-1) and cyclooxygenase 2 (COX-2). The inhibition of COX-1 was measured by incubating arachidonic acid with COX-1 dervied from ram seminal vesicles. The inhibition of COX-2 was measured by incubation of arachidonic acid with COX-2 derived from sheep placenta. These assays are further described in Evans et al., Biochem. Pharmacol., 36:2035, 1987. In each assay, the formation of prostaglandin E2 (PGE2) was measured by spectrophotometric quantitation of malondialdehyde. The compounds to be tested were added to incubation solutions at a concentration of 300 μM.
# [2] = tested on: cyclooxygenase 1 (COX-1); details: 300 μM; COX-1 from ram seminal vesicles
# Description: as §1
structure (smiles),measurement,setting,value
COc1ccc2c(c1)c(CC(=O)O)c(C)n2C(=O)c1ccc(Cl)cc1 [indomethacin],inhibition of COX-2,[1],completely inhibits
same,inhibition of COX-1,[2],completely inhibits
